Where a SMILES comes first, the peptide text is derived from it. [ ]: non-standard residue; d: D form.
Key:
FPR = target: T1, FPR (Homo sapiens, UniProt P21462); assay: Displacement of 125I-labeled WKYMVm binding to FPR (FPR-expressing RBL-2H3 cells); details: FIG. 2A
T1 construct: expressed in transfected cells; host or cells: RBL-2H3 (rat basophilic leukemia) cells, G418-selected
T1 sequence (P21462 1-350): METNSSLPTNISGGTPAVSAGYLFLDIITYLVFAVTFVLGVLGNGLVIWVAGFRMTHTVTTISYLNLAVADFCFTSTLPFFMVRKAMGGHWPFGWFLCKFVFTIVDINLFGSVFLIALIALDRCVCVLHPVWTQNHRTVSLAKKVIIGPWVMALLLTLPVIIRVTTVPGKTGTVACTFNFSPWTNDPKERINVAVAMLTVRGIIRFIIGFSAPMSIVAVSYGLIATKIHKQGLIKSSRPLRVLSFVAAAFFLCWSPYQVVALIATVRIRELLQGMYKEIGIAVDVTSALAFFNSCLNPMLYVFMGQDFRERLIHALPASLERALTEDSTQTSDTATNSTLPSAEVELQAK
Description: From the finding that some of the peptides (WKGMVm (SEQ ID NO: 1), WKRMVm (SEQ ID NO: 11), D-Met^6 substituted peptides) could not induce a cytosolic calcium increase, it was checked whether the peptides can bind to FPR or not. Displacement of ^125I-labeled WKYMVm binding to FPR or FPRL1 by the peptides was monitored. FPR-expressing RBL-2H3 cells were incubated with [^125I] WKYMVm in the absence or presence of increasing amounts of unlabeled WKYMVm or the peptides of SEQ ID NOs: 1 to 24.
A ligand binding analysis was performed as modified from the previous report (16). The radioiodinated WKYMVm (^125I-labeled) was purchased from NEN Lifesciences (Boston, Mass.). Briefly, FPR- or FPRL1-expressing RBL-2H3 cells were seeded into 1×10^5 cells per well of a 24-well plate and cultured overnight. After blocking the cells with a blocking buffer (33 mM HEPES, pH 7.5, 0.1% BSA in RPMI) for 2 hr, a single concentration of ^125I-labeled WKYMVm was added to cells with a binding buffer (PBS containing 0.1% BSA) in the absence or presence of 50 μM unlabelled peptides and incubated for 3 hr at 4° C. with continuous shaking. Then the samples were washed 5 times with ice-cold binding buffer, and 200 μl of lysis buffer (20 mM Tris, pH 7.5, 1% Triton X-100) was added to each well. After 20 min of lysis at room temperature, the lysates were collected. Bound ^125I-labeled WKYMVm was measured for radioactivity for a γ-ray counter.

FPRL1 [1] = target: T2, FPRL1 (Homo sapiens, UniProt P25090); assay: [Ca2+]i increase in FPRL1-expressing RBL-2H3 cells (fura-2); format: cell-based
T2 construct: expressed in transfected cells; host or cells: RBL-2H3 (rat basophilic leukemia) cells, G418-selected
T2 sequence (P25090 1-351): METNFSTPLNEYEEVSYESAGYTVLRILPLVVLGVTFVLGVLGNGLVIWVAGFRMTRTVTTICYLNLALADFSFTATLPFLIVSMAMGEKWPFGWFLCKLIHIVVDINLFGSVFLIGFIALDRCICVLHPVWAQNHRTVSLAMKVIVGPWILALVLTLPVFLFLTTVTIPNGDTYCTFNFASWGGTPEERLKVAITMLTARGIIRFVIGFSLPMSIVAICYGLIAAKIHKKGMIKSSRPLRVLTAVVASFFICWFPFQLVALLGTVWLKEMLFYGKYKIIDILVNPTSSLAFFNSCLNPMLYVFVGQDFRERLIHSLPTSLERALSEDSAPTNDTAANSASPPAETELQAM

FPRL1 [2] = target: T2, FPRL1; assay: Akt phosphorylation in FPRL1-expressing RBL-2H3 cells (immunoblot); format: cell-based; details: 10 μM peptides 5 min (WKYMVm time course 1 μM)
Description: It is well known that activation of chemoattractant receptors induces Akt activation via PI3K (19). Stimulation of cells with the peptides, electrophoresis and immunoblot analysis were performed according to the same method as in Example 5.
FPR- or FPRL1-expressing RBL-2H3 cells were stimulated with 1 μM WKYMVm for various periods of time (FIG. 4A). Two cells were preincubated with a vehicle or 100 ng/ml of PTX (24 hr), 50 μM of LY294002 (15 min), 5 μM of GFX (15 min), 10 μM BAPTA/AM (60min), or 50 μM PD98059 (60 min) prior to treatment with 1 μM of WKYMVm (FIG. 4B). FPR- and FPRL1-expressing RBL2H3 cells were stimulated with 10 μM of WKYMVm and the present peptides for 2 min or 5 min, respectively (FIG. 4C). Each sample (30 μg of protein) was subjected to 10% SDS-PAGE and phosphorylated Akt was determined by immunoblot analysis with an anti-phospho-Akt antibody. A western blot analysis with an anti-Akt antibody was performed to confirm that the same amounts of samples were used for the experiments. The results are shown FIGS. 4A to 4C. Results of FIGS. 4A to 4C are the representative of 3 independent experiments.

Structure (SMILES): CSCC[C@H](NC(=O)CNC(=O)[C@H](CCCCN)NC(=O)[C@@H](N)Cc1c[nH]c2ccccc12)C(=O)N[C@H](C(=O)N[C@H](CCSC)C(N)=O)C(C)C [WKGMVm-NH2, Trp-Lys-Gly-Met-Val-D-Met-NH2] (H-WKGMV[dM]-NH2; N-terminus assumed)
- inhibition of [^125I] WKYMVm binding (FPR): inhibited binding of [^125I] WKYMVm in a concentration-dependent manner
- [Ca^2+]i increasing activity (FPRL1 [1]): showed [Ca^2+]i-increasing activity in FPRL1 cells, with a little lower affinity to FPRL1

Structure (SMILES): CSCC[C@H](NC(=O)[C@H](CCCNC(=N)N)NC(=O)[C@H](CCCCN)NC(=O)[C@@H](N)Cc1c[nH]c2ccccc12)C(=O)N[C@H](C(=O)N[C@H](CCSC)C(N)=O)C(C)C [WKRMVm-NH2, Trp-Lys-Arg-Met-Val-D-Met-NH2] (H-WKRMV[dM]-NH2; N-terminus assumed)
- inhibition of [^125I] WKYMVm binding (FPR): inhibited binding of [^125I] WKYMVm in a concentration-dependent manner

Structure (SMILES): CSCC[C@H](NC(=O)[C@H](Cc1ccc(O)cc1)NC(=O)[C@H](CCCCN)NC(=O)[C@@H](N)Cc1c[nH]c2ccccc12)C(=O)N[C@H](C(=O)N[C@H](CCSC)C(N)=O)C(C)C [WKYMVm-NH2, Trp-Lys-Tyr-Met-Val-D-Met-NH2, reference compound]
- inhibition of [^125I] WKYMVm binding (FPR): inhibited binding of [^125I] WKYMVm in a concentration-dependent manner
- Akt phosphorylation (FPRL1 [2]): stimulated Akt phosphorylation
- concentration showing maximal [Ca^2+]i increase activity (FPRL1 [1]; data not shown): 10 nM
- EC50 (nM), intracellular calcium increase (FPRL1 [1]; fura-2 loaded): inactive
